Measurements taken from US20130324555A1, “Method of use of pharmaceutical formulations for the treatment of apicomplexan diseases in animals” (priority 2012, published 2013).
In brackets after ≈: the same amount, converted by molar mass.

Tests used:
T. gondii tachyzoites = experiment: In vitro inhibition of T. gondii tachyzoites (RH-YFP fluorescence / [3H]-uracil incorporation); type: cell-based; conditions: for MIC50 / MIC90: Toxoplasma gondii, T. gondii tachyzoites in HFF cells; for activity against T. gondii tachyzoites, in words: only MIC50≦1 μM considered active
Procedure: Determination of the anti-apicomplexan activity of Compounds of Formula I may be determined by one skilled in the art. Parasite proliferation was monitored by using stably transfected type I RH-YFP parasites, which constitutively express Yellow Florescent Protein. Proliferation also was tested using a [^3H]-Uracil incorporation assay, as Uracil is incorporated into nucleic acids of T. gondii tachyzoites, but not mammalian cells, as they divide. Complimentary challenge assays ensured that the observed fluorescence data was due to parasite inhibition and not to quenched fluorescence. Pyrimethamine and sulfadiazine were used as positive controls, and DMSO at a concentration of 0.1% was used as the negative control. Because T. gondii is an obligate parasite, compounds that are toxic to host cells will appear to inhibit parasite growth. Therefore, all test compounds were simultaneously evaluated for efficacy and toxicity against human cells.
Test compounds were dissolved in DMSO to make a 10 mM solution, and subsequently diluted with IMDM-C to the concentrations used in bioassay. In the in vitro experiments DMSO concentration was not greater than 0.1% unless otherwise specified. RH-YFP parasites, which stably express Yellow Florescent Protein, were used. Tachyzoites were extracted from HFF cells by double passage through a 25-gauge needle, centrifuged for 15 minutes at 1500 RPM, and resuspended in IMDM-C. Confluent monolayers of HFF cells were infected with parasites in 96-well plates (Falcon 96 Optilux Flat-bottom) with 3,500 parasites in 100 uL per well. One hour after inoculation, test compounds and control media were added for a final volume of 200 uL per well. Parasite proliferation was assessed using [^3H]-Uracil incorporation or YFP Fluorescence assay.
Human Foreskin Fibroblast (HFF) cells were maintained in confluent monolayers in Iscoves's Modified Dulbecco's Medium supplemented with 10% fetal bovine serum, 1% GlutaMAX and 1% penicillin-streptomycin-fungizone (IMDM-C). T. gondii tachyzoites were cultivated in HFF monolayers. Parasites and cells were maintained at 33° C. or 37° C. and 5% CO2. The strains of parasite used in this study include RH, RH-YFP, and Prugnaud FLUC (Type 2 parasites stably transfected with luciferase), Me49 strain, and TgGoatUS4 isolate.
25 μL of 0.1 mCi/mL*^3H]-Uracil or [^3H]-Thymidine was added to each well 24 hours before reading plates. At harvesting, contents of the wells were transferred onto a 96-well UniFilter GF/C filter plates using a Filtermate 196 cell harvester (Packard). [^3H]-Uracil and [^3H]-Thymidine incorporation was measured using a Microplate Scintillation Luminescence Counter (Packard).
72 hours after initiation of the in vitro challenge assay, parasite proliferation was assessed by reading fluorescence of YFP parasites with a Synergy H4 Hybrid Reader (BioTek) and Gen5 1.10 software, using a bottom optics positions, excitation wavelength of 514 nm, and emission wavelength of 540 nm.

[1] = Hydrolytic stability of acylated derivatives (data not shown); type: physicochemical
Procedure: A cursory study of the effect of capping the phenol of 4 via acylation was undertaken. The acylated derivatives 7 were prepared and tested. […] The intrinsic activity of intact 7a cannot yet be ruled out, and this interesting phenomenon is currently under study.

[2] = test system: P. falciparum D6 (CDC/Sierra Leone); experiment: Malaria SYBR Green 1-Based Fluorescence (MSF) Assay, strain D6; type: cell-based; conditions: Plasmodium falciparum, D6, read-out: D6 IC50
Procedure: Compound activity against P. falciparum, the causative agent of malaria, was assessed using the Malaria SYBR Green 1-Based Fluorescence (MSF) Assay. This microtiter plate drug sensitivity assay uses the presence of malarial DNA as a measure of parasitic proliferation. The assay is a microtiter plate drug sensitivity assay that uses the presence of malarial DNA as a measure of parasitic proliferation in the presence of antimalarial drugs or experimental compounds based on modifications of previously described methods (Plouffe et al., Proc Natl Acad Sci USA. 2008, 105, 9059-9064), (Johnson et al., Antimicrob. Agents Chemother. 2005, 49, 3463-3467).
Selected compounds were examined for activity against two strains of P. falciparum: D6 (CDC/Sierra Leone), a drug-sensitive and readily killed by chloroquine, and TM90-C235, a multi-drug resistant strain resistant to chloroquine.
D6 (CDC/Sierra Leone) and TM90-C235 (WRAIR, Thailand) laboratory strains of P. falciparum were used for each drug sensitivity assessment. The parasite strains were maintained continuously in long-term cultures as previously described in Johnson et al, and P. falciparum strains in late-ring or early-trophozoite stages were cultured in predosed 384-well microtiter drug assay plates in 38 μl culture volume per well at a starting parasitemia of 0.3% and a hematocrit of 2%. Pre-dosed, sterile, 384 well black optical bottom microtiter drug plates for use in the MSF assay were produced using a Tecan EVO Freedom Liquid Handling System (Tecan US, Durham, N.C.). Dose response plates were produced at a final concentration ranging from 0.5-10000 ng/ml in quadruplicate (twelve two-fold serial dilutions of each test compound or chloroquine control in DMSO. Each run was validated by a batch control plate with chloroquine (Sigma-Aldrich Co., Catalog #C6628) at a final concentration of 2000 ng/ml. The cultures were incubated for 72 hours at 37° C., 5% CO2, 5% O2 and 90% N2. Lysis buffer (38 μl per well), consisting of 20 mM Tris HCl, 5 mM EDTA, 1.6% Triton X, 0.016% saponin, and SYBR green I dye at a 20× concentration (Invitrogen, Catalog #S-7567) was then added to the assay plates utilizing the Tecan EVO Freedom system for a final SYBR Green concentration of 10×. Plates were incubated in the dark at room temperature in the dark for 24 hours.
Compound activity was assessed by examining for the relative fluorescence units (RFU) per well using the Tecan Genios Plus (Tecan US, Inc., Durham, N.C.). GraphPad Prism (GraphPad Software Inc., San Diego, Calif.) using the nonlinear regression (sigmoidal dose-response/variable slope) equation was used to determine IC50 values.

SMILES: C#Cc1cccc(NC(=O)c2cc(Cl)ccc2O)c1 [Compound 3d]
- MIC50 (T. gondii tachyzoites): > 1 µM
- MIC90 (T. gondii tachyzoites): > 1 µM

SMILES: COc1cc(C)cc(NC(=O)c2cc(Cl)ccc2O)c1 [Compound 3x]
- MIC50 (T. gondii tachyzoites): > 1 µM
- MIC90 (T. gondii tachyzoites): > 1 µM

SMILES: COc1ccc(NC(=O)c2cc(Cl)ccc2O)c(OC)c1OC [Compound 3q]
- MIC50 (T. gondii tachyzoites): > 1 µM
- MIC90 (T. gondii tachyzoites): > 1 µM
- activity against T. gondii tachyzoites, in words (T. gondii tachyzoites): devoid of activity

SMILES: O=C(Nc1cccc(OC(F)F)c1)c1cc(Cl)ccc1O [Compound 3z]
- MIC50 (T. gondii tachyzoites): > 1 µM
- MIC90 (T. gondii tachyzoites): > 1 µM

SMILES: O=C(Nc1ccc(Cl)cc1F)c1cc(Cl)ccc1O [Compound 3p, 5-chloro-N-(4-chloro-2-fluorophenyl)-2-hydroxybenzamide]
- activity against T. gondii tachyzoites, in words (T. gondii tachyzoites): removed all activity

SMILES: CC(C)Oc1cccc(NC(=O)c2cc(Cl)ccc2O)c1 [Compound 3w]
- MIC50 (T. gondii tachyzoites): > 1 µM
- MIC90 (T. gondii tachyzoites): > 1 µM

SMILES: CN1CCN(C(=O)Oc2ccc(Cl)cc2C(=O)Nc2ccc([N+](=O)[O-])cc2Cl)CC1 [Compound 7d, 4-chloro-2-((2-chloro-4-nitrophenyl)carbamoyl)phenyl 4-methylpiperazine-1-carboxylate]
- stability against hydrolysis [1]: much more stable against hydrolysis
- activity against T. gondii tachyzoites, in words (T. gondii tachyzoites): devoid of activity

SMILES: N#Cc1cccc(NC(=O)c2cc(Cl)ccc2O)c1 [Compound 3g]
- MIC50 (T. gondii tachyzoites): > 1 µM
- MIC90 (T. gondii tachyzoites): > 1 µM

SMILES: C#Cc1cc(NC(=O)c2cc(Cl)ccc2O)ccc1F [Compound 3t]
- MIC50 (T. gondii tachyzoites): > 1 µM
- MIC90 (T. gondii tachyzoites): > 1 µM
- activity against T. gondii tachyzoites, in words (T. gondii tachyzoites): inactive

SMILES: Cc1cc(C)cc(NC(=O)c2cc(Cl)ccc2O)c1 [Compound 3s]
- MIC50 (T. gondii tachyzoites): > 1 µM
- MIC90 (T. gondii tachyzoites): > 1 µM

SMILES: Nc1ccc(NC(=O)c2cc(Cl)ccc2O)c(Cl)c1 [Compound 5]
- MIC50 (T. gondii tachyzoites): > 1 µM
- MIC90 (T. gondii tachyzoites): > 1 µM
- activity against T. gondii tachyzoites, in words (T. gondii tachyzoites): all activity was lost

SMILES: O=C(Nc1ccc([N+](=O)[O-])cc1Cl)c1cc(Cl)ccc1OC(=O)N1CCOCC1 [Compound 7c]
- stability against hydrolysis [1]: much more stable against hydrolysis
- MIC50 (T. gondii tachyzoites): > 1 µM
- MIC90 (T. gondii tachyzoites): > 1 µM
- activity against T. gondii tachyzoites, in words (T. gondii tachyzoites): devoid of activity

SMILES: O=C(Nc1cccc(Cl)c1)c1cc(I)cc(I)c1O [Compound 3aa]
- MIC50 (T. gondii tachyzoites): > 1 µM
- MIC90 (T. gondii tachyzoites): > 1 µM
- activity against T. gondii tachyzoites, in words (T. gondii tachyzoites): no activity

SMILES: CCN(CC)CCCC(C)Nc1ccnc2cc(Cl)ccc12 (stereo not drawn) [Chloroquine, reference compound]
- IC50 [2]: 3.8 ng/mL (≈ 0.0119 µM)

SMILES: Cc1cccc(NC(=O)c2cc(Cl)ccc2O)c1 [Compound 3a]
- MIC50 (T. gondii tachyzoites): > 1 µM
- MIC90 (T. gondii tachyzoites): > 1 µM

SMILES: CCOc1cccc(NC(=O)c2cc(F)ccc2O)c1 [Compound 3ac]
- MIC50 (T. gondii tachyzoites): > 1 µM
- MIC90 (T. gondii tachyzoites): > 1 µM
- activity against T. gondii tachyzoites, in words (T. gondii tachyzoites): no activity

SMILES: CCOc1cccc(NC(=O)c2cc(Cl)ccc2O)c1 [Compound 3u]
- MIC50 (T. gondii tachyzoites): > 1 µM
- MIC90 (T. gondii tachyzoites): > 1 µM

SMILES: COC(=O)[C@@H]1CCCC1C(=O)Oc1ccc(Cl)cc1C(=O)Nc1ccc([N+](=O)[O-])cc1Cl (stereo partly drawn) [Compound 7b]
- stability against hydrolysis [1]: much more stable against hydrolysis
- MIC50 (T. gondii tachyzoites): > 1 µM
- MIC90 (T. gondii tachyzoites): > 1 µM
- activity against T. gondii tachyzoites, in words (T. gondii tachyzoites): devoid of activity

SMILES: O=C(Nc1ccc([N+](=O)[O-])cc1Cl)c1ccccc1O [Compound 3k]
- MIC50 (T. gondii tachyzoites): > 1 µM
- MIC90 (T. gondii tachyzoites): > 1 µM
- activity against T. gondii tachyzoites, in words (T. gondii tachyzoites): eliminated activity altogether

SMILES: O=C(Nc1cc(F)cc(F)c1)c1cc(Cl)ccc1O [Compound 3o]
- MIC50 (T. gondii tachyzoites): > 1 µM
- MIC90 (T. gondii tachyzoites): > 1 µM
- activity against T. gondii tachyzoites, in words (T. gondii tachyzoites): inactive

SMILES: COc1ccc(NC(=O)c2cc(Cl)ccc2O)cc1OC [Compound 3v]
- MIC50 (T. gondii tachyzoites): > 1 µM
- MIC90 (T. gondii tachyzoites): > 1 µM
- activity against T. gondii tachyzoites, in words (T. gondii tachyzoites): devoid of activity

SMILES: O=C(Nc1cccc(Oc2ccccc2)c1)c1cc(Cl)ccc1O [Compound 3y]
- MIC50 (T. gondii tachyzoites): > 1 µM
- MIC90 (T. gondii tachyzoites): > 1 µM

SMILES: COc1cccc(NC(=O)c2cc(F)ccc2O)c1 [Compound 10b]
- MIC50 (T. gondii tachyzoites): > 1 µM
- MIC90 (T. gondii tachyzoites): > 1 µM
- activity against T. gondii tachyzoites, in words (T. gondii tachyzoites): inactive

SMILES: Cc1cccc(NC(=O)c2cc(F)ccc2O)c1 [Compound 10a]
- MIC50 (T. gondii tachyzoites): > 1 µM
- MIC90 (T. gondii tachyzoites): > 1 µM
- activity against T. gondii tachyzoites, in words (T. gondii tachyzoites): inactive

SMILES: O=C(Nc1ccc2c(c1)OCCO2)c1cc(Cl)ccc1O [Compound 3ab]
- MIC50 (T. gondii tachyzoites): > 1 µM
- MIC90 (T. gondii tachyzoites): > 1 µM
- activity against T. gondii tachyzoites, in words (T. gondii tachyzoites): devoid of activity
